The term IC50 denotes the concentration that gives 50% inhibition.

Results on 37 compounds are retold here after patent US9284283B2, “Macrocyclic compounds for modulating IL-17” (ENSEMBLE THERAPEUTICS CORPORATION, priority 2012, dated 2016).

The assay addresses T1, biotinylated human IL-17 (binding to IL17R/Fc) (Homo sapiens, UniProt Q16552).
T1 construct: purchased R&D Systems 317-ILB (IL-17, biotinylated); 177-IR (IL17R/Fc)
T1 sequence (Q16552 20-155 limits assumed): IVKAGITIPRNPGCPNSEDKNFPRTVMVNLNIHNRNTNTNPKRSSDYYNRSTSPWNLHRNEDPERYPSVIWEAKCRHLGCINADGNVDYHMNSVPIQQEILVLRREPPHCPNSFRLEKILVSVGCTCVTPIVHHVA
The assay is described as follows: IL-17 competition ELISA II (captured IL17R/Fc, biotinylated IL-17). The procedure: In this version, a high binding 96-well plate (Costar #9018) was coated with 20 nM of goat anti-human IgG (KPL 01-10-02) in PBS, 100 μL/well, for 30 min at 37° C. followed by 5 min at 4° C. The plate was then washed in PBST (PBS/0.05% Tween-20) on a plate washer, (BioTek ELx450) then blocked with protein-free blocking buffer (Thermo Scientific #37573) in 250 μL/well for 30 min on a shaker at room temperature, and then washed again. IL17R/Fc (R&D Systems #177-IR; 10 nM in PBST, 100 μL/well) was then added to all wells. The plate was then incubated for 30 minutes at room temperature on the shaker.
While the receptor capture step was underway, compound dilutions were prepared in PBST to a concentration of 1 μM in 1.5 mL tubes. After the receptor capture step, the plate was washed and 50 μL PBST was added to the wells in row B down to row H. Then, 62.5 μL of the 1 μM compound dilutions were added to the wells of row A. From row A, 12.5 μL of the compound solution was removed and added to row B with mixing and this process of 5-fold dilutions was continued, by row, to row G. One of the wells in row A received only PBST (62.5 μL) and this dilution series served as the no competitor control. Then, going up from row G to row A, 50 μL of b-IL-17 (biotinylated human IL-17, R&D Systems #317-ILB; 20 nM) was added to all wells. Row H received 50 μL of PBST and served as the blank row, i.e., no compound and no b-IL-17. The plate was then incubated for 30 minutes at room temperature on the shaker.
After the wash, 100 μL Streptavidin-Horseradish Peroxidase (SA-HRP) (KPL #14-30-00) at 25 ng/mL in PBST was added to each well in the plate and the plate incubated for 30 minutes at room temperature followed by wash and 100 μL SureBlue™ TMB (KPL #52-00-03). After sufficient color development (approx 3-6 minutes), the reaction was fixed by the addition of 100 μL/well 0.5 N HCl and absorbance was measured at 450 nm on a BioTek Synergy 2 plate reader. The absorbances of ‘no competitor’ control and blank control should not exceed 1.5 A.U. and 0.06 A.U., respectively.
Data was processed using BioAssay Enterprise v10.1.4 (CambridgeSoft) software. Linear OD λ450 were plotted against log concentration (x) and fitted to a 4-parameter logistic equation. IC50 was calculated using positive ‘no competitor’ control data as an upper limit and blank control as a lower limit in each assay.
In general terms: In an ELISA, binding on a coated surface is turned into a signal by an enzyme label.
On to `O=C1CC2(CCCC2)CC(=O)N[C@H](Cc2ccc(NC(=O)[C@H](Cc3ccccc3Cl)NC(=O)[C@H](O)c3ccccc3)cc2)C(=O)NCCCCCN1` [Compound 547], for which the IC50 fell in the range of 100 to 1000 nM. Regarding `C[C@H]1NC(=O)[C@@H](Cc2ccc(NC(=O)[C@H](Cc3ccccc3Cl)NC(=O)Cc3ccc(F)cc3)cc2)N(C)C(=O)CC2(CCCC2)CC(=O)N(C)CCCCCN(C)C1=O` [Compound 489], the IC50 is less than 100 nM. Regarding `O=C1CC2(CCCC2)CC(=O)N[C@H](Cc2ccc(NC(=O)[C@H](Cc3ccccc3Cl)NC(=O)C3(c4ccc(F)cc4)CC3)cc2)C(=O)N[C@H](CO)C(=O)NCCCCCN1` [Compound 482], the IC50 was less than 100 nM. Take `C[C@H]1NC(=O)[C@@H](Cc2ccc(NC(=O)[C@H](Cc3ccccc3Cl)NC(=O)Cc3ccc(F)cc3)cc2)N(C)C(=O)CC2(CCCC2)CC(=O)NCCCCCNC1=O` [Compound 486]: the IC50 was less than 100 nM.

Consider `CN1CCOCCN(C)C(=O)[C@@H](Cc2cccnc2)NC(=O)[C@@H](Cc2ccc(NC(=O)[C@@H](NC(=O)C(F)(F)c3ccccc3)C3CCCCC3)cc2)NC(=O)CC2(CCCC2)CC1=O` [Compound 650], for which the IC50 was less than 100 nM.

Turning to `C[C@H]1NC(=O)[C@@H](Cc2ccc(NC(=O)[C@H](Cc3ccccc3Cl)NC(=O)Cc3ccc(F)cc3)cc2)NC(=O)CC2(CCCCC2)NC(=O)CCCCCCNC1=O` [Compound 621], the 50% inhibitory concentration (IC50) was less than 100 nM. Under `C[C@H]1NC(=O)[C@@H](Cc2ccc(NC(=O)[C@@H](NC(=O)C(F)(F)c3ccccc3)C3Cc4ccccc4C3)cc2)NC(=O)CC2(CCCC2)CC(=O)N(C)CCCCCN(C)C1=O` [Compound 631] stands less than 100 nM; under `CN1CCOCCOCCNC(=O)[C@@H](Cc2ccc(NC(=O)[C@@H](NC(=O)C(F)(F)c3ccccc3)C3CCCCC3)cc2)NC(=O)CC2(CCCC2)CC1=O` [Compound 611], less than 100 nM.

As for `O=C1CC2(CCCC2)CC(=O)N[C@H](Cc2ccc(NC(=O)[C@H](Cc3ccc(F)cc3Cl)NC(=O)C(F)(F)c3ccccc3)cc2)C(=O)NCCOCCOCCN1` [Compound 530], the IC50 is less than 100 nM. For `COC(=O)c1coc(N[C@@H](Cc2ccccc2Cl)C(=O)Nc2ccc(C[C@H]3NC(=O)CC4(CCCC4)CC(=O)N(C)CCOCCN(C)C(=O)[C@@H](C)NC3=O)cc2)n1` [Compound 666], the IC50 was less than 100 nM. As to `O=C1CC2(CCCC2)CC(=O)N[C@H](Cc2ccc(NC(=O)[C@H](Cc3ccccc3Cl)NC(=O)Cc3ccccc3)cc2)C(=O)NC/C=C/CCCCCN1` [Compound 283], the IC50 was 100 to 1000 nM.

In the case of `C[C@H]1NC(=O)[C@@H](Cc2ccc(NC(=O)[C@@H](Cc3ccccc3Cl)NC(=O)Cc3ccc(F)cc3)cc2)NC(=O)[C@@H]2CC[C@@H](C2)C(=O)NCCCCCNC1=O` [Compound 564], the IC50 was in the range of 100 to 1000 nM. In the case of `CN1CCCCCN(C)C(=O)[C@@H](CC(N)=O)NC(=O)[C@@H](Cc2ccc(NC(=O)[C@@H](NC(=O)C(F)(F)c3ccccc3)C3CCCCC3)cc2)NC(=O)CC2(CCCC2)CC1=O` [Compound 670], the IC50 is less than 100 nM. For `O=C1CC2(CCCC2)CC(=O)N[C@H](Cc2ccc(NC(=O)[C@H](Cc3ccccc3Cl)NC(=O)Cc3cccc(O)c3)cc2)C(=O)NCCNCCN1` [Compound 466], the IC50 was less than 100 nM.

Consider `CN(C)CCOc1ccc(CC(=O)N[C@@H](Cc2ccccc2Cl)C(=O)Nc2ccc(C[C@H]3NC(=O)CC4(CCCC4)CC(=O)NCCCCCNC(=O)[C@@H](Cc4ccccc4)NC3=O)cc2)cc1` [Compound 431], for which the IC50 is less than 100 nM.

Regarding `CN1CCNC(=O)CC2(CCCC2)CC(=O)N(C)[C@H](Cc2ccc(NC(=O)[C@H](Cc3ccccc3)N(C)C(=O)c3ccccc3)cc2)C(=O)N2CCC[C@H]2C(=O)NCC1` [Compound 371], the concentration for half-maximal inhibition (IC50) lay within 1000 to 10000 nM.

For `O=C1CC2(CCCC2)CC(=O)N[C@H](Cc2ccc(NC(=O)[C@H](Cc3ccccc3Cl)NC(=O)[C@H](O)c3ccccc3)cc2)C(=O)NCCOCCOCCN1` [Compound 545], the IC50 was less than 100 nM. Regarding `CN1CCOCCOCCNC(=O)[C@@H](Cc2ccc(NC(=O)[C@@H](NC(=O)Cc3ccc(N(C)C)cc3)C3CCCCC3)cc2)NC(=O)CC2(CCCC2)CC1=O` [Compound 640], the IC50 is less than 100 nM. With `C[C@H]1NC(=O)[C@@H](Cc2ccc(NC(=O)[C@H](Cc3ccccc3Cl)NC(=O)c3cnc4ccccc4c3)cc2)NC(=O)CC2(CCCC2)CC(=O)NCCCCCNC1=O` [Compound 428], the IC50 is less than 100 nM. As for `CC(=O)N[C@@H](Cc1ccccc1Cl)C(=O)Nc1ccc(C[C@H]2NC(=O)CC3(CCCC3)CC(=O)OCCCCCNC(=O)CNC2=O)cc1` [Compound 676], the IC50 was less than 100 nM. On to `CCC(F)(F)C(=O)NC(C(=O)Nc1ccc(CC2NC(=O)CC3(CCCC3)CC(=O)OCCCCCN(C)C(=O)CNC2=O)cc1)C1CCCCC1` (stereo not shown) [Compound 680], for which the IC50 lay in the range of 100 to 1000 nM. As to `NC(=O)CC[C@@H]1NC(=O)[C@@H](Cc2ccc(NC(=O)[C@H](Cc3ccccc3Cl)NC(=O)Cc3ccc(F)cc3)cc2)NC(=O)CC2(CCCC2)CC(=O)N[C@H](C(=O)O)CCCCNC1=O` [Compound 651], the IC50 is less than 100 nM.

Take `O=C1CC2(CCCC2)CC(=O)N[C@H](Cc2ccc(NC(=O)[C@H](Cc3ccccc3Cl)NC(=O)Oc3ccc(F)cc3)cc2)C(=O)NCCOCCOCCN1` [Compound 572]: the IC50 is less than 100 nM.

For `CN1CCOCCOCCNC(=O)[C@@H](Cc2ccc(NC(=O)[C@H](CC3CCCCC3)NC(=O)C(F)(F)c3ccccc3)cc2)NC(=O)CC2(CCCC2)CC1=O` [Compound 613], the IC50 is less than 100 nM.

Regarding `C[C@H]1NC(=O)[C@@H](Cc2ccc(NC(=O)[C@H](Cc3ccccc3Cl)NC(=O)Cc3cccc(O)c3)cc2)NC(=O)CC2(CCCC2)CC(=O)NCCCCCNC1=O` [Compound 483], the IC50 was less than 100 nM.

On to `O=C1CNC(=O)[C@H](Cc2ccc(NC(=O)[C@H](Cc3ccccc3Cl)NC(=O)Cc3ccccc3)cc2)NC(=O)CC2(CCCC2)CC(=O)NCCCCCN1` [Compound 519], for which the IC50 is less than 100 nM. For the compound `C[C@H]1NC(=O)[C@@H](Cc2ccc(NC(=O)[C@H](Cc3ccccc3Cl)NC(=O)Oc3ccccc3)cc2)NC(=O)CC2(CCCC2)CC(=O)N(C)CCN(C)CCN(C)C1=O` [Compound 574], the IC50 is less than 100 nM. Under `CN1CCCCCNC(=O)[C@@H](C(C)(C)C)NC(=O)[C@@H](Cc2ccc(NC(=O)[C@H](Cc3ccccc3Cl)NC(=O)Cc3cccc(O)c3)cc2)NC(=O)CC2(CCCC2)CC1=O` [Compound 462] stands less than 100 nM; under `CN1CCCCCOC(=O)CC2(CCCC2)CC(=O)N[C@H](Cc2ccc(NC(=O)[C@H](Cc3ccccc3Cl)NC(=O)C(F)(F)c3ccccc3)cc2)C(=O)NCC1=O` [Compound 678], less than 100 nM. On to `O=C1CC2(CCCC2)CC(=O)OCCCCCNC(=O)[C@@H](Cc2ccc(NC(=O)[C@@H](NC(=O)c3cccnc3)C3CCCCC3)cc2)N1` [Compound 423], for which the IC50 fell in the range of 1000 to 10000 nM. `Cc1ccc(C[C@H](NC(=O)C2(c3ccc(F)cc3)CC2)C(=O)Nc2ccc(C[C@H]3NC(=O)CC4(CCCC4)CC(=O)N(C)CCCCCNC(=O)[C@@H](C)NC3=O)cc2)c(C)c1` [Compound 509]: the IC50 lay within 100 to 1000 nM. Take `C[C@H]1NC(=O)[C@@H](Cc2ccc(NC(=O)[C@H](Cc3ccccc3Cl)NC(=O)Cc3ccc(F)cc3)cc2)NC(=O)CC2(CCCC2)CC(=O)NCCN2CCN(CC2)C1=O` [Compound 534]: the IC50 is less than 100 nM.

For `Cc1ccc(C[C@H](NC(=O)C2(c3ccc(F)cc3)CC2)C(=O)Nc2ccc(C[C@H]3NC(=O)CC4(CCCC4)CC(=O)NCCOCCOCCNC3=O)cc2)c(C)c1` [Compound 510], the IC50 is 100 to 1000 nM. `O=C1CC2(CCCC2)NC(=O)CCCCNC(=O)[C@@H](Cc2ccc(NC(=O)[C@H](Cc3ccccc3Cl)NC(=O)C(F)(F)c3ccccc3)cc2)N1` [Compound 652]: the IC50 lay in the range of 100 to 1000 nM. For the compound `O=C1CC2(CCCC2)CC(=O)N[C@H](Cc2ccc(NC(=O)[C@H](Cc3ccccc3Cl)NC(=O)c3ccc(F)cc3)cc2)C(=O)NCCOCCOCCN1` [Compound 521], the IC50 was less than 100 nM. For `C[C@H]1NC(=O)[C@@H](Cc2ccc(NC(=O)[C@H](Cc3ccccc3Cl)NC(=O)Cc3cccnc3)cc2)NC(=O)CC2(CCCC2)CC(=O)N(C)CCCCCN(C)C1=O` [Compound 628], the IC50 was less than 100 nM. `O=C1CC2(CCCC2)CC(=O)N[C@H](Cc2ccc(NC(=O)[C@H](Cc3ccccc3Cl)NC(=O)C(F)(F)c3ccccc3)cc2)C(=O)NCCCCCCCCN1` [Compound 597]: the IC50 was less than 100 nM.
